# In patent US8455475B2 (Gruenenthal GmbH, priority 2009, dated 2013):
# Target: T1, rat B1R (bradykinin receptor 1) (Rattus norvegicus, UniProt P97583)
# T1 construct: expressed in transfected cells; host or cells: CHO K1 cells
# T1 sequence (P97583 1-337): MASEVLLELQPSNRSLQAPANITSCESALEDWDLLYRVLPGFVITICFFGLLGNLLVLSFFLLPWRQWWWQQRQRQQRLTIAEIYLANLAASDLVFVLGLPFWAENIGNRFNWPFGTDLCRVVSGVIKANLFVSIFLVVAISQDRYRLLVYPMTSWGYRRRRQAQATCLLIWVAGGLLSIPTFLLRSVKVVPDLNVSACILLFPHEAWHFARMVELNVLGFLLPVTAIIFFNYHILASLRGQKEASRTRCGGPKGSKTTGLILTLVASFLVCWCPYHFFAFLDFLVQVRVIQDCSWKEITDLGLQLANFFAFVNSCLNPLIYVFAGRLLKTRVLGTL
# Test: FLIPR Ca2+ assay (Fluo-4) on CHO K1 cells stably transfected with the B1R gene of the rat (rB1R cells): % inhibition at 10 μM / IC50, agonist Des-Arg9-bradykinin
# Assay type: cell-based
# Conditions: CHO-K1, rat B1R
# Summary of the method: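 Antagonism is measured as the drop in peak Fluo-4 Ca2+ signal when the EC80 agonist follows 10–20 min compound exposure. The single-point screen uses 10 μM; IC50 uses several concentrations. Values are given as % of maximal achievable inhibition.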
row,SMILES,inhibition at 10 µM
1,"CC(C)(C)CC(=O)N1CCC2(CC1)CCN(C(=O)c1ccc3c(c1)C(N(C(=O)c1ccccc1Cl)C1CC1)CC3)C2 (stereo not shown) [IND_CC-604, 2-Chloro-N-cyclopropyl-N-[6-[8-(3,3-dimethyl-butanoyl)-2,8-diazaspiro[4.5]decane-2-carbonyl]-2,3-dihydro-1H-inden-1-yl]-benzamide]",94%
2,"Cc1ccccc1C(=O)NC1CCc2ccc(C(=O)N3CCC4(CC3)CCN(c3ccncc3)CC4)cc21 (stereo not shown) [IND_CC-346, 2-Methyl-N-[6-(9-pyridin-4-yl-3,9-diazaspiro[5.5]undecane-3-carbonyl)-2,3-dihydro-1H-inden-1-yl]-benzamide]",104%
3,"O=C(NC1CCc2ccc(C(=O)N3CCC4(CC3)CCN(c3ccncc3)CC4)cc21)C1CC1 (stereo not shown) [IND_CC-368, N-[6-(9-Pyridin-4-yl-3,9-diazaspiro[5.5]undecane-3-carbonyl)-2,3-dihydro-1H-inden-1-yl]-cyclopropanecarboxylic acid amide]",87%
4,"Cn1nc(C(C)(C)C)cc1C(=O)N1CCC2(CCN(C(=O)c3ccc4c(c3)C(N(C(=O)c3ccccc3Cl)C3CC3)CC4)C2)CC1 (stereo not shown) [IND_CC-607, N-[6-[8-(5-tert-Butyl-2-methyl-2H-pyrazole-3-carbonyl)-2,8-diazaspiro[4.5]decane-2-carbonyl]-2,3-dihydro-1H-inden-1-yl]-2-chloro-N-cyclopropyl-benzamide]",67%
5,"O=C(Nc1ccc(Cl)cc1C(F)(F)F)N1CCC2(CC1)CCN(C(=O)c1ccc3c(c1)C(N(C(=O)c1ccccc1Cl)C1CC1)CC3)C2 (stereo not shown) [IND_CC-714, 2-[3-[(2-Chloro-benzoyl)-cyclopropyl-amino]-2,3-dihydro-1H-indene-5-carbonyl]-N-[4-chloro-2-(trifluoromethyl)-phenyl]-2,8-diazaspiro[4.5]decane-8-carboxylic acid amide]",51%
6,"Cc1cc(C(=O)N2CCC3(CCN(C(=O)c4ccc5c(c4)C(NC(=O)c4sccc4Cl)CC5)C3)CC2)n(C(C)(C)C)n1 (stereo not shown) [IND_CC-588, N-[6-[8-(2-tert-Butyl-5-methyl-2H-pyrazole-3-carbonyl)-2,8-diazaspiro[4.5]-decane-2-carbonyl]-2,3-dihydro-1H-inden-1-yl]-3-chloro-thiophene-2-carboxylic acid amide]",61%
7,"CN(C1CCc2ccc(C(=O)N3CCC4(CC3)CCN(c3ccncc3)CC4)cc21)S(=O)(=O)c1c(Cl)cc(C(F)(F)F)cc1Cl (stereo not shown) [IND_CC-403, 2,6-Dichloro-N-methyl-N-[6-(9-pyridin-4-yl-3,9-diazaspiro[5.5]undecane-3-carbonyl)-2,3-dihydro-1H-inden-1-yl]-4-(trifluoromethyl)-benzenesulfonic acid amide]",97%
8,"CN(C1CCc2ccc(C(=O)N3CCC4(CC3)CCN(c3ccncc3)CC4)cc21)S(=O)(=O)c1ccc(Br)cc1Cl (stereo not shown) [IND_CC-405, 4-Bromo-2-chloro-N-methyl-N-[6-(9-pyridin-4-yl-3,9-diazaspiro[5.5]undecane-3-carbonyl)-2,3-dihydro-1H-inden-1-yl]-benzenesulfonic acid amide]",96%
9,"COc1cc(C)c(C(=O)NC2CCc3ccc(C(=O)N4CCC5(CCN(C(=O)c6cc(C)nn6C(C)(C)C)CC5)C4)cc32)c(C)c1 (stereo not shown) [IND_CC-581, N-[6-[8-(2-tert-Butyl-5-methyl-2H-pyrazole-3-carbonyl)-2,8-diazaspiro[4.5]decane-2-carbonyl]-2,3-dihydro-1H-inden-1-yl]-4-methoxy-2,6-dimethyl-benzamide]",67%
10,"O=C(CCC1CCCC1)NC1CCc2ccc(C(=O)N3CCC4(CCN(c5ccncc5)CC4)C3)cc21 (stereo not shown) [IND_CC-413, 3-Cyclopentyl-N-[6-(8-pyridin-4-yl-2,8-diazaspiro[4.5]decane-2-carbonyl)-2,3-dihydro-1H-inden-1-yl]-propionamide]",103%
11,"Cc1cccc(Cl)c1S(=O)(=O)NC1CCc2ccc(C(=O)N3CCC4(CC3)CCN(c3ccc(C(F)(F)F)cc3)CC4)cc21 (stereo not shown) [IND_CC-239, 2-Chloro-6-methyl-N-[6-[9-[4-(trifluoromethyl)-phenyl]-3,9-diazaspiro[5.5]-undecane-3-carbonyl]-2,3-dihydro-1H-inden-1-yl]-benzenesulfonic acid amide]",71%

# Further lines, results first:
row,inhibition at 10 µM,SMILES
1,55%,"Cc1noc(C)c1CN1CCC2(CC1)CCN(C(=O)c1ccc3c(c1)C(NC(=O)c1cccc(Cl)c1Cl)CC3)C2 (stereo not shown) [IND_CC-723, 2,3-Dichloro-N-[6-[8-[(3,5-dimethyl-isoxazol-4-yl)-methyl]-2,8-diazaspiro[4.5]decane-2-carbonyl]-2,3-dihydro-1H-inden-1-yl]-benzamide]"
2,79%,"COc1ccc(CN2CCC3(CC2)CCN(C(=O)c2ccc4c(c2)C(NC(=O)c2cc(C(F)(F)F)ccc2Cl)CC4)C3)cc1F (stereo not shown) [IND_CC-636, 2-Chloro-N-[6-[8-[(3-fluoro-4-methoxy-phenyl)-methyl]-2,8-diazaspiro[4.5]-decane-2-carbonyl]-2,3-dihydro-1H-inden-1-yl]-5-(trifluoromethyl)-benzamide]"
3,53%,"O=C(NC1CCc2ccc(C(=O)N3CCC4(CCN(Cc5csnn5)CC4)CC3)cc21)c1cc(Cl)ccc1F (stereo not shown) [IND_CC-652, 5-Chloro-2-fluoro-N-[6-[9-([1,2,3]thiadiazol-4-yl-methyl)-3,9-diazaspiro[5.5]undecane-3-carbonyl]-2,3-dihydro-1H-inden-1-yl]-benzamide]"
4,63%,"O=C(NC1CCc2ccc(C(=O)N3CCC4(CCN(Cc5ccc(F)c(F)c5)CC4)CC3)cc21)c1cc(Cl)ccc1F (stereo not shown) [IND_CC-628, 5-Chloro-N-[6-[9-[(3,4-difluoro-phenyl)-methyl]-3,9-diazaspiro[5.5]undecane-3-carbonyl]-2,3-dihydro-1H-inden-1-yl]-2-fluoro-benzamide]"
5,93%,"Cc1nc(CN2CCC3(CC2)CCN(C(=O)c2ccc4c(c2)C(NC(=O)c2c(F)cccc2Cl)CC4)C3)c[nH]1 (stereo not shown) [IND_CC-736, 2-Chloro-6-fluoro-N-[6-[8-[(2-methyl-1H-imidazol-4-yl)-methyl]-2,8-diazaspiro[4.5]decane-2-carbonyl]-2,3-dihydro-1H-inden-1-yl]-benzamide]"
6,72%,"O=C(c1ccc2c(c1)C(N(C(=O)c1ccccc1Cl)C1CC1)CC2)N1CCC2(CCN(Cc3c(F)cccc3Cl)CC2)C1 (stereo not shown) [IND_CC-538, 2-Chloro-N-[6-[8-[(2-chloro-6-fluoro-phenyl)-methyl]-2,8-diazaspiro[4.5]-decane-2-carbonyl]-2,3-dihydro-1H-inden-1-yl]-N-cyclopropyl-benzamide]"
7,90%,"O=C(NC1CCc2ccc(C(=O)N3CCC4(CC3)CCN(c3ccc(C(F)(F)F)cc3)CC4)cc21)c1c(Cl)cccc1Cl (stereo not shown) [IND_CC-286, 2,6-Dichloro-N-[6-[9-[4-(trifluoromethyl)-phenyl]-3,9-diazaspiro[5.5]undecane-3-carbonyl]-2,3-dihydro-1H-inden-1-yl]-benzamide]"
8,87%,"O=C(NC1CCc2ccc(C(=O)N3CCC4(CCN(CCCc5ccc(F)cc5)CC4)C3)cc21)c1cc(Cl)ccc1F (stereo not shown) [IND_CC-675, 5-Chloro-2-fluoro-N-[6-[8-[3-(4-fluorophenyl)-propyl]-2,8-diazaspiro[4.5]decane-2-carbonyl]-2,3-dihydro-1H-inden-1-yl]-benzamide]"
9,79%,"COc1cccc(F)c1CN1CCC2(CC1)CCN(C(=O)c1ccc3c(c1)C(NC(=O)c1c(F)cccc1Cl)CC3)CC2 (stereo not shown) [IND_CC-793, 2-Chloro-6-fluoro-N-[6-[9-[(2-fluoro-6-methoxy-phenyl)-methyl]-3,9-diazaspiro[5.5]undecane-3-carbonyl]-2,3-dihydro-1H-inden-1-yl]-benzamide]"
10,85%,"CN(C(=O)c1ccccc1Cl)C1CCc2ccc(C(=O)N3CCC4(CCN(C(=O)Cc5ccc(Cl)cc5)CC4)C3)cc21 (stereo not shown) [IND_CC-592, 2-Chloro-N-[6-[8-[2-(4-chlorophenyl)-acetyl]-2,8-diazaspiro[4.5]decane-2-carbonyl]-2,3-dihydro-1H-inden-1-yl]-N-methyl-benzamide]"
11,53%,"O=C(NC1CCc2ccc(C(=O)N3CCC4(CCN(CCc5ccccc5)CC4)CC3)cc21)c1cc(Cl)ccc1F (stereo not shown) [IND_CC-681, 5-Chloro-2-fluoro-N-[6-(9-phenethyl-3,9-diazaspiro[5.5]undecane-3-carbonyl)-2,3-dihydro-1H-inden-1-yl]-benzamide]"
12,102%,"O=C(NC1CCc2ccc(C(=O)N3CCC4(CCN(Cc5cc(F)ccc5F)CC4)C3)cc21)c1ccccc1Cl (stereo not shown) [IND_CC-543, 2-Chloro-N-[6-[8-[(2,5-difluoro-phenyl)-methyl]-2,8-diazaspiro[4.5]decane-2-carbonyl]-2,3-dihydro-1H-inden-1-yl]-benzamide]"
13,99%,"O=C(NC1CCc2ccc(C(=O)N3CCC4(CCN(Cc5ccccn5)CC4)CC3)cc21)c1c(F)cccc1Cl (stereo not shown) [IND_CC-784, 2-Chloro-6-fluoro-N-[6-[9-(pyridin-2-yl-methyl)-3,9-diazaspiro[5.5]undecane-3-carbonyl]-2,3-dihydro-1H-inden-1-yl]-benzamide]"
14,91%,"O=C(NC1CCc2ccc(C(=O)N3CCC4(CCN(C(=O)Nc5c(Cl)cccc5Cl)CC4)CC3)cc21)c1ccccc1Cl (stereo not shown) [IND_CC-709, 3-[3-[(2-Chloro-benzoyl)amino]-2,3-dihydro-1H-indene-5-carbonyl]-N-(2,6-dichloro-phenyl)-3,9-diazaspiro[5.5]undecane-9-carboxylic acid amide]"
